Measurements taken from publication PMC12490239, “Combining BET inhibition with SMAC mimetics restricts tumor growth and triggers immune surveillance in preclinical cancer models” (Cell Reports Medicine, 2025).

Legend:
Assay in all cases: cells
Set-up in all cases: CellTiter-Glo 2.0 luminescence proliferation/viability assay, single agents, human tumour cell line panel
C99 = settings: 96 h; single agent; read-out: IC50 SMACm
In short: (§1)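 Human tumour cell lines were seeded into assay plates and held at 37°C with 5% CO2 for twenty-four hours, then exposed in triplicate to rising concentrations of the SMAC mimetic, from 4.5 nM to 10 μM, with DMSO as control. After 96 h, viability was read as CellTiter-Glo2.0 luminescence to derive single-agent IC50 values.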

CL14 = settings: 96 h; single agent; read-out: IC50 SMACm
In short: as §1

COLO-741 = settings: Homo sapiens, COLO-741, 96 h; single agent; read-out: IC50 SMACm
In short: as §1

COR-L105 = settings: Homo sapiens, COR-L105, 96 h; single agent; read-out: IC50 SMACm
In short: as §1

Calu-6 = settings: Homo sapiens, Calu-6, 96 h; single agent; read-out: IC50 SMACm
In short: as §1

ChaGo-K-1 = settings: Homo sapiens, ChaGo-K-1, 96 h; single agent; read-out: IC50 SMACm
In short: as §1

GCIY = settings: Homo sapiens, GCIY, 96 h; single agent; read-out: IC50 SMACm
In short: as §1

HCC78 = settings: Homo sapiens, HCC78, 96 h; single agent; read-out: IC50 SMACm
In short: as §1

HCT-116 = settings: Homo sapiens, HCT-116, 96 h; single agent; read-out: IC50 SMACm
In short: as §1

LS-513 = settings: Homo sapiens, LS-513, 96 h; single agent; read-out: IC50 SMACm
In short: as §1

MKN74 = settings: Homo sapiens, MKN-74, 96 h; single agent; read-out: IC50 SMACm
In short: as §1

SNU283 = settings: 96 h; single agent; read-out: IC50 SMACm
In short: as §1

SNUC2B = settings: Homo sapiens, SNU-C2B, 96 h; single agent; read-out: IC50 SMACm
In short: as §1

SW48 = settings: Homo sapiens, SW48, 96 h; single agent; read-out: IC50 SMACm
In short: as §1

CN[C@@H](C)C(=O)Nc1ccc(-c2c(-c3cccnc3OC)nc3cc(C)ccn23)c(C#Cc2ccc3c(C)nccc3c2)n1 [SMACm, BI 891065]
IC50 (C99): 3.8 µM | IC50 (CL14): 1.91 µM | IC50 (COLO-741): 0.831 µM | IC50 (COR-L105): 4.47 µM | IC50 (Calu-6): 4.93 µM | IC50 (ChaGo-K-1): 5.42 µM | IC50 (GCIY): 4.01 µM | IC50 (HCC78): 5.11 µM | IC50 (HCT-116): 4.06 µM | IC50 (LS-513): 5.77 µM | IC50 (MKN74): 4.57 µM | IC50 (SNU283): 3.78 µM | IC50 (SNUC2B): 0.137 µM | IC50 (SW48): 5.9 µM
